Type in all cases: cell-based, human
For experiment [1], the system named is phospho-dynamin. Put plainly: Western blot of phospho-dynamin in hCMEC/D3 monolayers. The following applies: TNF-alpha 20 ng/mL, 24 h, western blot normalized to GAPDH, p<0.05.
In experiment [2] the test system is phospho-cofilin (serine 3). The experiment in a line: Western blot of phospho-cofilin in hCMEC/D3 monolayers. Conditions: TNF-alpha 20 ng/mL, 24 h, western blot normalized to GAPDH, p<0.05. A general note: Immunoblotting shows a protein as a band on a membrane.
Experiment [3] deals with hCMEC/D3 monolayers. The experiment in a line: Confocal microscopy of FITC-Aβ42 uptake in hCMEC/D3 monolayers. The following applies: TNF-alpha 20 ng/mL.
Experiment [4] deals with phospho-IRS (serine 307). The experiment in a line: Western blot of phospho-IRS in hCMEC/D3 monolayers. The following applies: TNF-alpha 20 ng/mL, 24 h, immunoblot normalized to GAPDH, p<0.01.

Turning to tumor necrosis factor-alpha [TNF-alpha], the “increase in phospho-dynamin levels compared to control cells” value in experiment [1] is listed as around 3 fold. In experiment [2], the “decrease of phospho-cofilin expression compared to control cells” value is reported as “approximately 2 fold”. In addition, the “FITC-Aβ42 fluorescence by confocal microscopy in comparison to control cells” value in experiment [3] was “increased FITC-Aβ42 fluorescence”. For the same substance, the “increase in phospho-IRS expression (serine 307)” value in experiment [4] came to 3 fold.

Source of the values: article doi:10.1101/2025.01.28.635286v2 (bioRxiv, 2025).
